Source: US8975417B2, “Pyrazolopyrrolidine derivatives and their use in the treatment of disease” (Novartis AG, priority 2013, dated 2015)

Columns and labels:
Details in all cases: biochemical
His-Brd4(44-477) = His-Brd4(44-477) (Homo sapiens (Human), UniProt O60885); experiment: TR-FRET in-vitro binding assay for BRD4
Description: (§1) TR-FRET In-Vitro Binding Assays for BRD2, BRD3, and BRD4:
(§2) All assays were performed in 384-well microtiter plates. Each assay plate contained 8-point serial dilutions for 40 test compounds, plus 16 high- and 16 low controls. Liquid handling and incubation steps were done on an Innovadyne Nanodrop Express equipped with a robotic arm (Thermo CatX, Perkin Elmer/Caliper Twister II) and an incubator (Liconic STX40, Thermo Cytomat 2C450). The assay plates were prepared by addition of 50 nl per well of compound solution in 90% DMSO HummingBird nanodispenser (Zinsser Analytic). The assay was started by stepwise addition of 4.5 μL per well of bromo domain protein (50 mM HEPES, pH 7.5, 0.005% Tween20, 0.1% BSA, 50 mM NaCl, 45 nM His-Brd2(60-472) or 45 nM His-Brd3(20-477) or 45 nM His-Brd4(44-477) all proteins produced in-house) and 4.5 μL per well of peptide solution (50 mM HEPES, pH 7.5, 0.005% Tween20, 0.1% BSA, 50 mM NaCl, 60 nM acetyl-histone H4 (AcK 5, 8, 12, 16) (Biosyntan GmbH)). Reactions were incubated at 30° C. for 35 minutes. Subsequently 4.5 μL per well detection mix (50 mM HEPES, pH 7.5, 0.005% Tween20, 0.1% BSA, 50 mM NaCl, 3 nM Eu-labeled anti-His6 antibody, 21 nM streptavidin-allophycocyanin) were added. After minutes incubation at 30° C., plates were measured in a Perkin Elmer EnVision multilabel reader.
(§3) Test compounds were dissolved in DMSO (10 mM) and transferred into 1.4 mL flat bottom or V-shaped Matrix tubes carrying a unique 2D matrix. The stock solutions were stored at […] if not used immediately. For the test procedure the vials were defrosted and identified by a scanner whereby a working sheet was generated that guided the subsequent working steps. Compound dilutions were made in 96 well plates. This format enabled the assay of maximally […] at 8 concentrations (single points) including 4 reference compounds, if desired (known BET inhibitors from the prior art, for this and other assays of the type disclosed herein). The dilution protocol included the production of “pre-dilution plates”, “master plates” and “assay plates”.
(§4) Polypropylene 96-well plates were used as pre-dilution plates. […] All dilution steps were done on a HamiltonSTAR robot.
(§5) 30 μL of individual compound dilutions including standard compound and controls of the 4 “pre-dilution plates” were transferred into a 384-well “master plate” including the following concentrations 10000, […], 1000, 300, 100, 30, 10 and 3 μM, respectively in 90% of DMSO.
(§6) Identical “assay plates” were then prepared by pipetting 50 nL each of compound dilutions of the “master plates” into 384-well “assay plates” by means of a HummingBird 384-channel dispenser. These plates were used directly for the assay which was performed in a total volume of 13.55 μL.

[1] = molecular target: His-CREBBP (1081-1197) bromodomain (Homo sapiens (Human), UniProt Q92793); experiment: AlphaScreen in-vitro binding assay for CREBBP
Chain of His-CREBBP (1081-1197) bromodomain (Q92793 1081-1197): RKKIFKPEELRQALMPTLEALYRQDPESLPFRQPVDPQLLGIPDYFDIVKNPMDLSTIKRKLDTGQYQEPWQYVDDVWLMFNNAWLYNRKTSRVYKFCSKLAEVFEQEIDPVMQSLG
Description: AlphaScreen In-Vitro Binding Assay for CREBBP
In order to assess bromodomain selectivity, we set up a binding assay using the bromodomain encoded by the CREBBP gene. […] Reactions were incubated at 30° C. for 35 minutes. Subsequently 4.5 μL per well detection mix (50 mM HEPES, pH 7.5, 0.005% Tween20, 0.02% BSA, 150 mM NaCl, 45 μg/ml Ni-chelate acceptor beads, 45 μg/mL streptavidin-donor beads) (Perkin Elmer)) were added. After 60 minutes incubation at room temperature, plates were measured in a Perkin Elmer EnVision multilabel reader. IC50 values were determined from percent inhibition values at different compound concentrations by non-linear regression analysis.
as §3, §4
These plates were used directly for the assay which was performed in a total volume of 13.55 μL.

His-Brd3(20-477) = His-Brd3(20-477) (Homo sapiens (Human), UniProt Q15059); experiment: TR-FRET in-vitro binding assay for BRD3
Chain of His-Brd3(20-477) (Q15059 20-477): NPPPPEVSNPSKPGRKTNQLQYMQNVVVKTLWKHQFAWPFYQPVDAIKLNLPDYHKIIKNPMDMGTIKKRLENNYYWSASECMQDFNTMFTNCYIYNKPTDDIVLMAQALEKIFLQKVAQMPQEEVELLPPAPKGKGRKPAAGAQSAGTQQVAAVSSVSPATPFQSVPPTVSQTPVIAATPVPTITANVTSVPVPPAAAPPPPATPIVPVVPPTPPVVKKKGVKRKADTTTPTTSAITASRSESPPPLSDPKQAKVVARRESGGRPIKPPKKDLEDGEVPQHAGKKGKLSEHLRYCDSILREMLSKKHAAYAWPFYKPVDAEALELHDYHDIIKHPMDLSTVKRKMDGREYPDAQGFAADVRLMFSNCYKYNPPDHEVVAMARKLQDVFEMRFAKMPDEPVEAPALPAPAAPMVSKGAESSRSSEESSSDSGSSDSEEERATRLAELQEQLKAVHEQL
Description: as §1, §2, §3, §4, §5, §6

His-Brd2(60-472) = His-Brd2(60-472) (Homo sapiens (Human), UniProt P25440); experiment: TR-FRET in-vitro binding assay for BRD2
Chain of His-Brd2(60-472) (P25440 60-472): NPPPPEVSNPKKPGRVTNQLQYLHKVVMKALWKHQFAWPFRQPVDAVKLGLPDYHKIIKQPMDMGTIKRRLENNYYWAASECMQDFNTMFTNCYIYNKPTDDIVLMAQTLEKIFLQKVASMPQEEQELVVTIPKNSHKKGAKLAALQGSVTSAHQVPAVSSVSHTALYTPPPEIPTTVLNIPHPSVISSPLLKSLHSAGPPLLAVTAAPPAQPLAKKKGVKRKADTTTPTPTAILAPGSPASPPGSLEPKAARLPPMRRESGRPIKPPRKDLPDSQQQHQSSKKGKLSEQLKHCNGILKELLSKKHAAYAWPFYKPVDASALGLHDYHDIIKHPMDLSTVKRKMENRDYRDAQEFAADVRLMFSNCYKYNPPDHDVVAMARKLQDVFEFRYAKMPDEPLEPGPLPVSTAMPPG
Description: as §1, §2, §3, §4, §5, §6

Compound	IC50 (His-Brd4(44-477))	IC50 [1]	IC50 (His-Brd3(20-477))	IC50 (His-Brd2(60-472))
Cc1cc(N2C(=O)c3nn(C)c(C)c3C2c2ccc(Cl)cc2)cn(C)c1=O (stereo not drawn) [Example 28, 4-(4-chlorophenyl)-5-(1,5-dimethyl-6-oxo-1,6-dihydropyridin-3-yl)-2,3-dimethyl-4,5-dihydropyrrolo[3,4-c]pyrazol-6(2H)-one]	140 nM	3300 nM	160 nM	320 nM
Cc1nn(C2CC2)c2c1C(c1ccc(Cl)cc1)N(c1cc(Cl)c(=O)n(C)c1)C2=O (racemic) [Example 24, 5-(5-chloro-1-methyl-6-oxo-1,6-dihydropyridin-3-yl)-4-(4-chlorophenyl)-1-cyclopropyl-3-methyl-4,5-dihydropyrrolo[3,4-c]pyrazol-6(1H)-one]	150 nM	5900 nM	150 nM	230 nM
Cc1noc2ccc(N3C(=O)c4nn(C)c(C)c4C3c3ccc(Cl)cc3)cc12 (stereo not drawn) [Example 33, 4-(4-chlorophenyl)-2,3-dimethyl-5-(3-methylbenzo[d]isoxazol-5-yl)-4,5-dihydropyrrolo[3,4-c]pyrazol-6(2H)-one]	700 nM	> 37000 nM	920 nM	1200 nM
Cc1cc(N2C(=O)c3nn(C(C)C)cc3C2c2ccc(Cl)cc2)cn(C)c1=O (stereo not drawn) [Example 41, 4-(4-chlorophenyl)-5-(1,5-dimethyl-6-oxo-1,6-dihydropyridin-3-yl)-2-isopropyl-4,5-dihydropyrrolo[3,4-c]pyrazol-6(2H)-one]	96 nM	380 nM	85 nM	75 nM
Cc1nn(C2CC2)c2c1[C@@H](c1ccc(Cl)cc1F)N(c1cc(C)c3nnc(C)n3c1)C2=O [Example 190, (S)-4-(4-chloro-2-fluorophenyl)-1-cyclopropyl-5-(3,8-dimethyl-[1,2,4]triazolo[4,3-a]pyridin-6-yl)-3-methyl-4,5-dihydropyrrolo[3,4-c]pyrazol-6(1H)-one]	22 nM	12000 nM	25 nM	28 nM
Cc1cc(N2C(=O)c3nn(C4CC4)c(C)c3C2c2ccc(Cl)cc2)cn(C)c1=O (stereo not drawn) [Example 20, 4-(4-chlorophenyl)-2-cyclopropyl-5-(1,5-dimethyl-6-oxo-1,6-dihydropyridin-3-yl)-3-methyl-4,5-dihydropyrrolo[3,4-c]pyrazol-6(2H)-one]	88 nM	1100 nM	77 nM	130 nM
Cc1nn(C2CC2)c2c1[C@H](c1ccc(Cl)cc1)N(c1cc(C)c(=O)n(C)c1)C2=O [Example 48, (S)-4-(4-chlorophenyl)-1-cyclopropyl-5-(1,5-dimethyl-6-oxo-1,6-dihydropyridin-3-yl)-3-methyl-4,5-dihydropyrrolo[3,4-c]pyrazol-6(1H)-one]	> 6700 nM	> 5100 nM	> 6700 nM	> 6700 nM
CC(C)n1cc2c(n1)C(=O)N(c1cc(Cl)c(=O)n(C)c1)C2c1ccc(Cl)cc1 (stereo not drawn) [Example 42, 5-(5-chloro-1-methyl-6-oxo-1,6-dihydropyridin-3-yl)-4-(4-chlorophenyl)-2-isopropyl-4,5-dihydropyrrolo[3,4-c]pyrazol-6(2H)-one]	100 nM	450 nM	89 nM	91 nM
COCc1nn(C2CC2)c2c1C(c1ccc(Cl)cc1)N(c1cc(C)c(=O)n(C)c1)C2=O (racemic) [Example 132, 4-(4-chlorophenyl)-1-cyclopropyl-5-(1,5-dimethyl-6-oxo-1,6-dihydropyridin-3-yl)-3-(methoxymethyl)-4,5-dihydropyrrolo[3,4-c]pyrazol-6(1H)-one]	67 nM	4800 nM	89 nM	81 nM
Cc1c2c(nn1C)C(=O)N(c1cc(Cl)c(=O)n(C)c1)C2c1ccc(Cl)cc1 (stereo not drawn) [Example 6, 5-(5-chloro-1-methyl-6-oxo-1,6-dihydropyridin-3-yl)-4-(4-chlorophenyl)-2,3-dimethyl-4,5-dihydropyrrolo[3,4-c]pyrazol-6(2H)-one]	190 nM	3500 nM	180 nM	350 nM
Cc1cc(N2C(=O)c3nn(C4CC4)c(C(F)(F)F)c3C2c2ccc(Cl)cc2)cn(C)c1=O (stereo not drawn) [Example 43, 4-(4-chlorophenyl)-2-cyclopropyl-5-(1,5-dimethyl-6-oxo-1,6-dihydropyridin-3-yl)-3-(trifluoromethyl)-4,5-dihydropyrrolo[3,4-c]pyrazol-6(2H)-one]	120 nM	660 nM	110 nM	100 nM
Cc1nn(C2CC2)c2c1C(c1ccc(Cl)cc1)N(c1cc(C)c3nnn(C)c3c1)C2=O (stereo not drawn) [Example 85, 4-(4-chlorophenol)-1-cyclopropyl-5-(1,4-dimethyl-1H-benzo[d][1,2,3]triazol-6-yl)-3-methyl-4,5-dihydropyrrolo[3,4-c]pyrazol-6(1H)-one]	14 nM	8300 nM	16 nM	24 nM
Cc1[nH]nc2c1C(c1ccc(Cl)cc1)N(c1cc(Cl)c(=O)n(C)c1)C2=O (stereo not drawn) [Example 5, 5-(5-chloro-1-methyl-6-oxo-1,6-dihydropyridin-3-yl)-4-(4-chlorophenyl)-3-methyl-4,5-dihydropyrrolo[3,4-c]pyrazol-6(2H)-one]	360 nM	5600 nM	370 nM	730 nM
Cc1c2c(nn1C1CC1)C(=O)N(c1cc(Cl)c(=O)n(C)c1)C2c1ccc(Cl)cc1 (stereo not drawn) [Example 17, 5-(5-chloro-1-methyl-6-oxo-1,6-dihydropyridin-3-yl)-4-(4-chlorophenyl)-2-cyclopropyl-3-methyl-4,5-dihydropyrrolo[3,4-c]pyrazol-6(2H)-one]	140 nM	1300 nM	97 nM	180 nM
CCn1nc(C)c2c1C(=O)N(c1cc(C)c3nnc(C)n3c1)[C@@H]2c1ccc(Cl)cc1F [Example 192, (S)-4-(4-chloro-2-fluorophenyl)-5-(3,8-dimethyl-[1,2,4]triazolo[4,3-a]pyridin-6-yl)-1-ethyl-3-methyl-4,5-dihydropyrrolo[3,4-c]pyrazol-6(1H)-one]	39 nM	7100 nM	44 nM	53 nM
CC(C)n1ncc2c1C(=O)N(c1cc(Cl)c(=O)n(C)c1)C2c1ccc(Cl)cc1 (stereo not drawn) [Example 38, 5-(5-chloro-1-methyl-6-oxo-1,6-dihydropyridin-3-yl)-4-(4-chlorophenyl)-1-isopropyl-4,5-dihydropyrrolo[3,4-c]pyrazol-6(1H)-one]	62 nM	1900 nM	76 nM	49 nM
Cn1cc(N2C(=O)c3nn(C4CC4)cc3C2c2ccc(Cl)cc2)cc(Cl)c1=O (stereo not drawn) [Example 37, 5-(5-chloro-1-methyl-6-oxo-1,6-dihydropyridin-3-yl)-4-(4-chlorophenyl)-2-cyclopropyl-4,5-dihydropyrrolo[3,4-c]pyrazol-6(2H)-one]	170 nM	1200 nM	140 nM	140 nM
CCn1nc(C)c2c1C(=O)N(c1cc(C)c3nnc(C)n3c1)[C@@H]2c1ccc(F)cc1F [Example 191, (S)-4-(2,4-difluorophenyl)-5-(3,8-dimethyl-[1,2,4]triazolo[4,3-a]pyridin-6-yl)-1-ethyl-3-methyl-4,5-dihydropyrrolo[3,4-c]pyrazol-6(1H)-one]	25 nM	10000 nM	31 nM	69 nM
